# Measured values reported in patent US4239780A, “Phospholipase A2 inhibition” (The Upjohn Company, priority 1979, dated 1980).
# Structures can show the parent of a compound that is named as a salt.
# Columns and labels:
# [1] = target: T1, HOG PANCREAS PHOSPHOLIPASE A2 (Sus scrofa, UniProt P00592); experiment: coupled phospholipase A2 / soybean lipoxygenase oxygen consumption assay, hog pancreas enzyme; assay type: biochemical; conditions: estimated I50 calculated from a partial inhibition value, pH 8.5, 37° C.
# T1 construct: from tissue; host or cells: hog pancreas
# T1 sequence (P00592 23-146): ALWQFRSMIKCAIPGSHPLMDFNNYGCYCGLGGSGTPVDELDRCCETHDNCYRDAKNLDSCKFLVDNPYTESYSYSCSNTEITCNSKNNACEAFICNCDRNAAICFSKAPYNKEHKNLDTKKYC
# [2] = target: T2, HUMAN PLATELET PHOSPHOLIPASE A2 (Homo sapiens, UniProt P47712); experiment: inhibition of collagen-induced aggregation of human platelets; assay type: cell-based; conditions: human platelet rich plasma, read-out: I50 collagen (converted)
# T2 construct: Human blood was drawn from an antecubital vein into 3.8% sodium citrate; endogenous in cells; host or cells: human platelets in citrated plasma (PRP)
# T2 sequence (P47712 1-749): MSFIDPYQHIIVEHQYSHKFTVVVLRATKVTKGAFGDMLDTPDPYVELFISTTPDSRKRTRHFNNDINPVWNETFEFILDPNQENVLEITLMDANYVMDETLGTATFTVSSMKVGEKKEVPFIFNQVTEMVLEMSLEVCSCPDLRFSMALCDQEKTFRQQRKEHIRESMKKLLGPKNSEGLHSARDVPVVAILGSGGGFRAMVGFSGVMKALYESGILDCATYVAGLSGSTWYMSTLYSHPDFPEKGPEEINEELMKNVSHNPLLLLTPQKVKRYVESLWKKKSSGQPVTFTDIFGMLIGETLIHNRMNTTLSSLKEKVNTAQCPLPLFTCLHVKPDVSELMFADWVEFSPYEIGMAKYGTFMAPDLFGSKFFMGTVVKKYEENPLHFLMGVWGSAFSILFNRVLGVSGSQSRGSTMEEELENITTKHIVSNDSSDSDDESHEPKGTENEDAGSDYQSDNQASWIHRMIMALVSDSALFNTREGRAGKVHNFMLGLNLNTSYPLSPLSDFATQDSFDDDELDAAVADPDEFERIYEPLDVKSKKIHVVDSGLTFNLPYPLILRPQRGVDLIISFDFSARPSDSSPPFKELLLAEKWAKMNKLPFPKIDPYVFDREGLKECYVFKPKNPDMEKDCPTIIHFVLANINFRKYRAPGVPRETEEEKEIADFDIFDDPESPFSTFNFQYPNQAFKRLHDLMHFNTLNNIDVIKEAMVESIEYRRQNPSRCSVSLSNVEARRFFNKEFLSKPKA
# Method: The compounds of the present invention were tested for their ability to inhibit collagen-induced aggregation of platelets at 100 μg. per ml. or less. The compounds that were active against collagen-induced aggregation were tested at the I50 dose against arachidonic acid-induced aggregation. Compounds that inhibited collagen-induced aggregation, but not arachidonic acid-induced aggregation, were reported as active phospholipase A2 inhibitors.
# The test was run as follows. Human blood was drawn from an antecubital vein into 3.8% sodium citrate with the final citrate concentration being 0.38%. The blood was transferred to plastic centrifuge tubes and centrifuged at 200×g for 10 min. This yielded […] (PRP). This PRP was allowed to stand for 30 min. for testing at which point it was tested against 400 μg. per ml. of arachidonic acid. […] If the platelets aggregated to arachidonic acid, a dose of collagen that gave a substantial irreversible aggregation (approximately 60-80% transmission) was established. It was then attempted to block the response of collagen with 10 μg. per ml. of indomethacin. […] The ID50 for all unknown compounds was then established. Most of the compounds were tested at rather high concentrations and it was often necessary to place the compound in ethanol into the aggregation cuvet and evaporate the ethanol before testing.
# Those that were reported as active were tested at the ID50 dose against 400 μg per ml. of arachidonic acid. […] The compounds are shown to inhibit phospholipase A2 from humans at low dosages.
# UV induced erythema = UV induced erythema on the skin of guinea pigs; assay type: in vivo, guinea pig; conditions: for erythema score, 1 hour / erythema score, 2 hours / erythema score, 3 hours / erythema score, 4 hours / erythema score, 24 hours: aggregate score for 3 animals; for erythema score, (After 4 hours) Total Points / erythema score, (After 24 hours) Total Points: aggregate for 3 animals
# Method: Some of the compounds of this invention were tested in vivo for their ability to inhibit the effects of UV induced erythema on the skin of guinea pigs. This is an example of an inflammatory process fulfilling the four pathological requirements of "rubor, calor, dolor, and tumor" i.e., reddening, heat, pain, and edematious swelling in the skin. Administration of the compounds of this invention to guinea pigs whose skin was subsequently exposed to ultraviolet light markedly retarded and in some cases eliminated altogether this inflammatory process. Administration of the compounds of this invention was performed both interparenterally and subcutaneously with equivalent results, thereby eliminating any possiblity of reduction in erthyma due to the so called "counter irritant" effect on the serosal soft surface of the gut.
# The test was carried out as follows: Guinea pigs of the Hartley strain ranging in weight from 250 to 750 gm. were clipped with coarse and fine clippers to remove as much hair as possible from the back or abdomen. They were then treated with a commercial depilatory for six to seven min. after which they were washed with warm water. The animals were then injected I.P. or subcutaneously with solutions or suspensions of the test compounds made up at 0.02 molar concentrations. The dose was 0.3 ml. per 100 gm. of body weight. A control (untreated) group was also maintained. The animals were then held for 30 min. before being exposed as rapidly as possible to ultra-violet light using a Kromayer lamp for 30 sec. A scoring system was developed to quantitate the erythema. The scoring was from 0 to 5 and is described as follows:
# 0=no apparent reddening of the skin
# 0.5=some slight reddening, without a definite border
# 1.0=a discrete pink circle with a definite border
# 2.0=a discrete circle of redness with a definite border more intense than 1.0
# 3.0=same circle with still greater intensity
# 4.0=same circle with a near maximal response but without any raising of the erythematous spot above the level of the surrounding skin
# 5.0=a raised edematous circle with the redness at maximal intensity
# The animals were scored at hourly intervals for the first four hours. The erythema reached a maximum at this time in the control animals. The major difference between results at 4 hr. and those at 24 is the developement of edema and this occurred in some of the animals treated with phospholipase inhibitors without erythema being present. The results of this test are shown in tabular form in Tables VI and VII. The aggregate scores of the animals treated with the designated compounds are recorded at hourly intervals and compared with the control (untreated) scores. As shown by the tables, the method of this invention markedly retarded UV-induced erythema.
# [3] = target: SNAKE VENOM PHOSPHOLIPASE A2; experiment: coupled phospholipase A2 / soybean lipoxygenase oxygen consumption assay, snake venom enzyme; assay type: biochemical; conditions: estimated I50 calculated from a partial inhibition value, pH 8.5, 37° C.
# [4] = target: BEE VENOM PHOSPHOLIPASE A2 (Apis mellifera, UniProt P00630); experiment: biochemical; conditions: pH 8.5, 37° C.
# Sequence of UniProt P00630 (P00630 34-167 limits assumed): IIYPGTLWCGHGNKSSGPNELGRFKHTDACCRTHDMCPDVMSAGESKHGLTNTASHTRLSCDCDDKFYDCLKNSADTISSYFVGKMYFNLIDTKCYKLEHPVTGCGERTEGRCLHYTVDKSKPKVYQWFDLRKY
# [5] = intraperitoneal, 23-25.2 mg/kg given 30 min. before UV, control 12
# [6] = intraperitoneal, 23-25.2 mg/kg given 30 min. before UV, control 18
# [7] = intraperitoneal, 23-25.2 mg/kg given 30 min. before UV, control 24
# [8] = intraperitoneal, 23-25.2 mg/kg given 30 min. before UV, control 30
# [9] = intraperitoneal, 23-25.2 mg/kg given 30 min. before UV, control 50
# [10] = intraperitoneal, 23-25.2 mg/kg, control 78
# [11] = intraperitoneal, 23-25.2 mg/kg, control 128
# [12] = subcutaneous, 60.9-66.1 mg/kg given 30 min. before UV, control 17
# [13] = subcutaneous, 60.9-66.1 mg/kg given 30 min. before UV, control 23
# [14] = subcutaneous, 60.9-66.1 mg/kg given 30 min. before UV, control 29
# [15] = subcutaneous, 60.9-66.1 mg/kg given 30 min. before UV, control 34
# [16] = subcutaneous, 60.9-66.1 mg/kg given 30 min. before UV, control 56
# [17] = subcutaneous, 60.9-66.1 mg/kg, control 103
# [18] = subcutaneous, 60.9-66.1 mg/kg, control 158
smiles,measurement,setting,value
"CN(CCCC(=O)c1ccc(F)cc1)[C@H]1CC[C@](CO)(c2ccccc2)CC1 [F, Butyrophenone, 4'-fluoro-4-[[c-4-(hydroxy-methyl)-t-4-phenyl-r- -cyclohexyl]methyl-amino]-]",IC50,[1],43.7 µM
same,IC50,[2],65.2 µM
same,"erythema score, 1 hour",UV induced erythema; [5],14
same,"erythema score, 2 hours",UV induced erythema; [6],12
same,"erythema score, 3 hours",UV induced erythema; [7],12
same,"erythema score, 4 hours",UV induced erythema; [8],17
same,"erythema score, 24 hours",UV induced erythema; [9],60
same,"erythema score, (After 4 hours) Total Points",UV induced erythema; [10],55
same,"erythema score, (After 24 hours) Total Points",UV induced erythema; [11],105
"CO[C@]1(c2ccccc2C)CC[C@H](NCCCC(=O)c2ccc(F)cc2)CC1 [B, Butyrophenone, 4'-fluoro-4-[(c-4-methoxy-4-o-tolylcyclohexyl)-amino]-, hydrochloride, hemihydrate]",IC50,[1],10.7 µM
same,IC50,[2],183 µM
same,"erythema score, 1 hour",UV induced erythema; [5],3
same,"erythema score, 2 hours",UV induced erythema; [6],5
same,"erythema score, 3 hours",UV induced erythema; [7],5
same,"erythema score, 4 hours",UV induced erythema; [8],2
same,"erythema score, 24 hours",UV induced erythema; [9],36
same,"erythema score, (After 4 hours) Total Points",UV induced erythema; [10],15
same,"erythema score, (After 24 hours) Total Points",UV induced erythema; [11],51
same,"erythema score, 1 hour",UV induced erythema; [12],8
same,"erythema score, 2 hours",UV induced erythema; [13],7
same,"erythema score, 3 hours",UV induced erythema; [14],6
same,"erythema score, 4 hours",UV induced erythema; [15],13
same,"erythema score, 24 hours",UV induced erythema; [16],33
same,"erythema score, (After 4 hours) Total Points",UV induced erythema; [17],34
same,"erythema score, (After 24 hours) Total Points",UV induced erythema; [18],66
"O=C(CCCN[C@H]1CC[C@](CO)(c2ccccc2)CC1)c1ccc(Cl)cc1 [E, Butyrophenone, 4'-chloro-4-[[c-4-(hydroxy-methyl)-4-phenyl-r-1-yclohexyl]amino]-, hydrochloride]",IC50,[1],29.8 µM
"O=C(CCCN[C@H]1CC[C@](CO)(c2ccc(Cl)cc2)CC1)c1ccc(F)cc1 [G, Butyrophenone, 4-[[t-4-(p-chlorophenyl)-c-4-(hydroxymethyl)-r-1-cyclo-hexyl]amino]-4'fluoro-, hydrochloride]",IC50,[1],55.3 µM
same,IC50,[2],74.3 µM
same,"erythema score, 1 hour",UV induced erythema; [12],12
same,"erythema score, 2 hours",UV induced erythema; [13],13
same,"erythema score, 3 hours",UV induced erythema; [14],9
same,"erythema score, 4 hours",UV induced erythema; [15],13
same,"erythema score, 24 hours",UV induced erythema; [16],52
same,"erythema score, (After 4 hours) Total Points",UV induced erythema; [17],46
same,"erythema score, (After 24 hours) Total Points",UV induced erythema; [18],98
"CO[C@]1(c2ccc(C)cc2)CC[C@H](NCCCC(=O)c2ccc(F)cc2)CC1 [D, Butyrophenone, 4'-fluoro-4-[(c-4-methoxy-4-p-tolyl-r-1-cyclohexyl)amino]-, hydrochloride]",IC50,[1],14.9 µM
same,IC50,[2],261 µM
"O=C(CCCN[C@H]1CC[C@](CO)(c2ccccc2)CC1)c1ccc(F)cc1 [I, Butyropehnone, 4'-fluoro-4-[[4-(hydroxymethyl)-4-phenylcyclohexyl]amino]- cis-, hydrochloride]",IC50,[1],24.3 µM
same,IC50,[3],221 µM
same,"erythema score, 1 hour",UV induced erythema; [12],2
same,"erythema score, 2 hours",UV induced erythema; [13],4
same,"erythema score, 3 hours",UV induced erythema; [14],6
same,"erythema score, 4 hours",UV induced erythema; [15],7
same,"erythema score, 24 hours",UV induced erythema; [16],40
same,"erythema score, (After 4 hours) Total Points",UV induced erythema; [17],18
same,"erythema score, (After 24 hours) Total Points",UV induced erythema; [18],58
"CO[C@]1(c2ccccc2C)CC[C@@H](NCCCC(=O)c2ccc(F)cc2)CC1 [C, Butyrophenone, 4'-fluoro-4-[(t-4-methoxy-4-o-tolylcyclohexyl)-amino]-, hydrochloride]",IC50,[1],11.8 µM
same,IC50,[3],301 µM
same,IC50,[4],404 µM
same,IC50,[2],196 µM
same,"erythema score, 1 hour",UV induced erythema; [5],8
same,"erythema score, 2 hours",UV induced erythema; [6],13
same,"erythema score, 3 hours",UV induced erythema; [7],12
same,"erythema score, 4 hours",UV induced erythema; [8],12
same,"erythema score, 24 hours",UV induced erythema; [9],27
same,"erythema score, (After 4 hours) Total Points",UV induced erythema; [10],45
same,"erythema score, (After 24 hours) Total Points",UV induced erythema; [11],72
same,"erythema score, 1 hour",UV induced erythema; [12],10
same,"erythema score, 2 hours",UV induced erythema; [13],11
same,"erythema score, 3 hours",UV induced erythema; [14],9
same,"erythema score, 4 hours",UV induced erythema; [15],10
same,"erythema score, 24 hours",UV induced erythema; [16],40
same,"erythema score, (After 4 hours) Total Points",UV induced erythema; [17],39
same,"erythema score, (After 24 hours) Total Points",UV induced erythema; [18],79
"O=C(CCCN[C@H]1CC[C@H](c2ccc(C(F)(F)F)cc2)CC1)c1ccc(F)cc1 [A, Butyrophenone, 4'-fluoro-4-[[4-(α,α,α-trifluoro-p-tolyl)-cyclohexyl]amino]-, trans-,]",IC50,[1],5.1 µM
"O=C(CCCNC1CCC(c2ccc(Cl)cc2)CC1)c1ccc(F)cc1 (stereo not drawn) [H, Butyrophenone, 4[[4-(p-chlorophenyl)cyclohexyl]-amino]-4'-fluoro-, hydro-chloride]","erythema score, 1 hour",UV induced erythema; [12],6
same,"erythema score, 2 hours",UV induced erythema; [13],6
same,"erythema score, 3 hours",UV induced erythema; [14],7
same,"erythema score, 4 hours",UV induced erythema; [15],9
same,"erythema score, 24 hours",UV induced erythema; [16],52
same,"erythema score, (After 4 hours) Total Points",UV induced erythema; [17],28
same,"erythema score, (After 24 hours) Total Points",UV induced erythema; [18],78
